What was measured:
[1] = test system: murine bone marrow-derived macrophages; assay: area under cytotoxicity dose-response curve (AUC (% cytotoxicity x dose, relative)); higher = more cytotoxic; conditions: duration: 6 days; dose range: 0.13-80 uM, 8 points
In short: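 Cytotoxicity is given as the area under the dose–response curve, computed in GraphPad Prism version 10. Primary murine bone marrow-derived macrophages in opaque 384-well plates received an 8-point, 2.5-fold dilution series (final 80–0.13 μM) for 6 days at 37 °C in 5% CO2. Viability was measured by Promega's CellTiter-Glo luminescence assay, with percent cytotoxicity normalised to vehicle and positive control wells.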

[2] = test system: Mycobacterium tuberculosis CDC1551 (intracellular, in murine BMDM); assay: area under intracellular growth-inhibition dose-response curve (AUC (% inhibition x dose, relative)); higher = more potent; conditions: duration: 6 days; dose range: 0.13-80 uM, 8 points
In short: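 Luciferase-expressing M. tuberculosis CDC1551 was used at multiplicity of infection 1 for 1 h to infect primary murine bone marrow-derived macrophages in 384-well opaque plates, 24 h after seeding. Treatment followed for 6 days with an 8-dose, 2.5-fold series at final concentrations of 80–0.13 μM. GraphPad Prism was used to calculate the area under the growth-inhibition dose–response curve from Bright-Glo luciferin readings normalised to a reference drug control and the lowest-concentration wells.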

Compound: COc1cccc(/C=N/NC(N)=S)c1OS(=O)(=O)c1ccccc1
- area under cytotoxicity dose-response curve [1]: 94.4
- area under intracellular growth-inhibition dose-response curve [2]: 237

Compound: C=CCOc1ccc(/C=N\NC(N)=S)cc1
- area under cytotoxicity dose-response curve [1]: 10.8
- area under intracellular growth-inhibition dose-response curve [2]: 276

Compound: CC[N+](C)(CC)CCCCOc1ccc2c(c1)C(=O)c1cc(OCCCC[N+](C)(CC)CC)ccc1-2.[I-]
- area under cytotoxicity dose-response curve [1]: 51.3
- area under intracellular growth-inhibition dose-response curve [2]: 175

Compound: CC(=O)Nc1ccc(-c2c(C)cc3oc(=O)cc(-c4ccccc4)c3c2C)cc1
- area under cytotoxicity dose-response curve [1]: 113
- area under intracellular growth-inhibition dose-response curve [2]: 221

Compound: C/C(Cn1nnc([N+](=O)[O-])n1)=N\NC(=O)c1ccncc1
- area under cytotoxicity dose-response curve [1]: < 0
- area under intracellular growth-inhibition dose-response curve [2]: 271

Compound: O=C(c1ccc(Cl)c(Cl)c1)N1CCCC1
- area under cytotoxicity dose-response curve [1]: 52.5
- area under intracellular growth-inhibition dose-response curve [2]: 86.7

Compound: Cc1nnc(NCc2cccc(Cl)c2)c2ccccc12
- area under cytotoxicity dose-response curve [1]: 128
- area under intracellular growth-inhibition dose-response curve [2]: 211

Compound: CCCN1CNC(=S)N(c2ccc(C(=O)OCC)cc2)C1
- area under cytotoxicity dose-response curve [1]: 9
- area under intracellular growth-inhibition dose-response curve [2]: 83.8

Compound: Cc1ccc(/C=N/NC(=O)c2ccncc2)o1
- area under cytotoxicity dose-response curve [1]: 78.6
- area under intracellular growth-inhibition dose-response curve [2]: 213

Compound: O=C(NCC1CC1(Cl)Cl)Nc1ccc(Cl)c(Cl)c1 (stereo not given)
- area under cytotoxicity dose-response curve [1]: 111
- area under intracellular growth-inhibition dose-response curve [2]: 239

Compound: O=C(c1cccs1)N1CCC(c2ccccc2)C1 (stereo not given)
- area under cytotoxicity dose-response curve [1]: < 0
- area under intracellular growth-inhibition dose-response curve [2]: 189

Compound: Cc1nnc(N2CCCCC2)c2ccccc12
- area under cytotoxicity dose-response curve [1]: 15.8
- area under intracellular growth-inhibition dose-response curve [2]: 117

Compound: COc1cc(/C=N/NC(=O)c2ccncc2)ccc1OC(C)=O
- area under cytotoxicity dose-response curve [1]: 37.6
- area under intracellular growth-inhibition dose-response curve [2]: 273

Compound: O=[N+]([O-])c1ccc(CN2CCN(c3ccccc3)CC2)o1
- area under cytotoxicity dose-response curve [1]: 42.8
- area under intracellular growth-inhibition dose-response curve [2]: 254

Compound: NC(=S)N/N=C/c1ccc(C(F)(F)F)cc1
- area under cytotoxicity dose-response curve [1]: 19.4
- area under intracellular growth-inhibition dose-response curve [2]: 260

Compound: CC1CCN(C(=O)C2CCN(c3nnc(-n4cccc4)s3)CC2)CC1
- area under cytotoxicity dose-response curve [1]: < 0
- area under intracellular growth-inhibition dose-response curve [2]: 234

Compound: CC1CCC(C(C)C)C(OC(=O)C[n+]2c(-c3ccc(Br)cc3)n(C)c3ccccc32)C1.[Cl-] (stereo not given)
- area under cytotoxicity dose-response curve [1]: 82.2
- area under intracellular growth-inhibition dose-response curve [2]: 192

Compound: O=C(NC1CCCC1)C1CC1c1ccccc1 (stereo not given)
- area under cytotoxicity dose-response curve [1]: < 0
- area under intracellular growth-inhibition dose-response curve [2]: 135

Compound: COc1cccc2c1nc(C)c1cc(C)oc12
- area under cytotoxicity dose-response curve [1]: < 0
- area under intracellular growth-inhibition dose-response curve [2]: 121

Compound: CCCN=C1C(=O)C2=C(C(O)=C1C)N1CC3NC3[C@@]1(OC)C2COC(N)=O (stereo not given in full)
- area under cytotoxicity dose-response curve [1]: 121
- area under intracellular growth-inhibition dose-response curve [2]: 166

Compound: O=C(NN=C1C2CC3CC(C2)CC1C3)c1ccncc1
- area under cytotoxicity dose-response curve [1]: 103
- area under intracellular growth-inhibition dose-response curve [2]: 238

Compound: C/C(Cn1cnc([N+](=O)[O-])n1)=N/NC(=O)COc1c(Cl)cc(Cl)cc1Cl
- area under cytotoxicity dose-response curve [1]: < 0
- area under intracellular growth-inhibition dose-response curve [2]: 196

Compound: COc1cc(OC)c(/C=N/NC(=O)c2ccncc2)cc1Br
- area under cytotoxicity dose-response curve [1]: 98
- area under intracellular growth-inhibition dose-response curve [2]: 249

Compound: O=C(N/N=C/c1cccn1-c1ccccc1)c1ccncc1
- area under cytotoxicity dose-response curve [1]: 57.4
- area under intracellular growth-inhibition dose-response curve [2]: 251

Compound: C=CCNC(=S)NNC(=O)CC12CC3CC(CC(C3)C1)C2
- area under cytotoxicity dose-response curve [1]: 8.72
- area under intracellular growth-inhibition dose-response curve [2]: 222

Compound: Cc1cccc(C)c1-n1c(C)cc(/C=N/NC(=O)c2ccncc2)c1C
- area under cytotoxicity dose-response curve [1]: 32.2
- area under intracellular growth-inhibition dose-response curve [2]: 252

Compound: CSc1ccc(C(=O)C2CCCN(C(=O)c3ccc4c(c3)no[n+]4[O-])C2)cc1 (stereo not given)
- area under cytotoxicity dose-response curve [1]: 64.7
- area under intracellular growth-inhibition dose-response curve [2]: 191

Compound: CN(Cc1ccccc1)C(=O)CCc1ccccc1
- area under cytotoxicity dose-response curve [1]: < 0
- area under intracellular growth-inhibition dose-response curve [2]: 181

Compound: O=C(CCN1C(=O)S/C(=C\c2ccc(F)cc2)C1=O)Nc1ccc(C(=O)O)c(O)c1
- area under cytotoxicity dose-response curve [1]: 11.3
- area under intracellular growth-inhibition dose-response curve [2]: 120

Compound: COc1ccc(NC(=O)C/C(C)=N/NC(=O)c2ccncc2)c([N+](=O)[O-])c1
- area under cytotoxicity dose-response curve [1]: 129
- area under intracellular growth-inhibition dose-response curve [2]: 169

Compound: O=C(N/N=C\c1ccc([N+](=O)[O-])o1)C1COc2ccccc2O1 (stereo not given)
- area under cytotoxicity dose-response curve [1]: 10.7
- area under intracellular growth-inhibition dose-response curve [2]: 203

Compound: O=C(CCCOc1ccccc1)NNC(=O)c1ccncc1
- area under cytotoxicity dose-response curve [1]: < 0
- area under intracellular growth-inhibition dose-response curve [2]: 263

Compound: CCc1ccc(NC(=O)NC2CCCCCCC2)cc1
- area under cytotoxicity dose-response curve [1]: 85.4
- area under intracellular growth-inhibition dose-response curve [2]: 120

Compound: CCCCCc1ccc(OCCCC[n+]2ccccc2)c(CCCCC)c1.[Cl-]
- area under cytotoxicity dose-response curve [1]: 79.3
- area under intracellular growth-inhibition dose-response curve [2]: 16

Compound: CC1(C)C2CCC1(C)C(NC(=O)/C=C/c1ccccc1)C2 (stereo not given)
- area under cytotoxicity dose-response curve [1]: 58.5
- area under intracellular growth-inhibition dose-response curve [2]: 242

Compound: CC1CCc2nc3sc4c(c3c(N)c2C1)CCCC4 (stereo not given)
- area under cytotoxicity dose-response curve [1]: 58.3
- area under intracellular growth-inhibition dose-response curve [2]: 174

Compound: CS(=O)(=O)N1CCN(C(=O)CCC2CCCC2)CC1
- area under cytotoxicity dose-response curve [1]: 43.1
- area under intracellular growth-inhibition dose-response curve [2]: 159

Compound: Cc1ccc(C(=O)NC2CCCCC2)cc1
- area under cytotoxicity dose-response curve [1]: 43.3
- area under intracellular growth-inhibition dose-response curve [2]: 228

Compound: Cc1ccc(C)c(NC(=O)CN2C(=O)NC(C)(c3ccc4c(c3)OCCO4)C2=O)c1 (stereo not given)
- area under cytotoxicity dose-response curve [1]: 4.48
- area under intracellular growth-inhibition dose-response curve [2]: 44.8

Compound: N#CCCn1cc(/C=N/NC(=O)c2ccncc2)c(-c2ccccc2)n1
- area under cytotoxicity dose-response curve [1]: < 0
- area under intracellular growth-inhibition dose-response curve [2]: 247

Compound: CCNc1nc(NCC)nc(N/N=C/c2ccc([N+](=O)[O-])o2)n1
- area under cytotoxicity dose-response curve [1]: 18
- area under intracellular growth-inhibition dose-response curve [2]: 266

Compound: CCOc1ccc(/C=N/n2cc(-c3ccccc3)nc2S)cc1
- area under cytotoxicity dose-response curve [1]: < 0
- area under intracellular growth-inhibition dose-response curve [2]: 265

Compound: COc1ccc(C(C)NC(=O)c2ccccc2)cc1 (stereo not given)
- area under cytotoxicity dose-response curve [1]: 237
- area under intracellular growth-inhibition dose-response curve [2]: 222

Compound: CC(C)(C)c1csc(N/N=C/c2ccc(O)cc2)n1
- area under cytotoxicity dose-response curve [1]: 19.1
- area under intracellular growth-inhibition dose-response curve [2]: 235

Compound: Cn1ncc2cc(NC(N)=S)ccc21
- area under cytotoxicity dose-response curve [1]: < 0
- area under intracellular growth-inhibition dose-response curve [2]: 196

Compound: NC(=S)c1cn(C2OC(CO)C(O)C2O)c2ncnc(N)c12 (stereo not given)
- area under cytotoxicity dose-response curve [1]: 36.6
- area under intracellular growth-inhibition dose-response curve [2]: 70.2

Compound: Clc1ccc2nnc(Cl)n2n1
- area under cytotoxicity dose-response curve [1]: 54
- area under intracellular growth-inhibition dose-response curve [2]: 79.4

Compound: Cc1c([N+](=O)[O-])cc(C(=O)NCc2ccc(F)cc2)cc1[N+](=O)[O-]
- area under cytotoxicity dose-response curve [1]: < 0
- area under intracellular growth-inhibition dose-response curve [2]: 252

Compound: Cc1cc(C(=O)N/N=C/c2ccc([N+](=O)[O-])o2)c(C)o1
- area under cytotoxicity dose-response curve [1]: 105
- area under intracellular growth-inhibition dose-response curve [2]: 142

Compound: COc1c(N2CCN(C(=S)Nc3ccccc3F)C(C)C2)c(F)cc2c(=O)c(C(=O)O)cn(C3CC3)c12 (stereo not given)
- area under cytotoxicity dose-response curve [1]: < 0
- area under intracellular growth-inhibition dose-response curve [2]: 275

Compound: O=C(NCCN1CCOCC1)c1cc([N+](=O)[O-])cc([N+](=O)[O-])c1
- area under cytotoxicity dose-response curve [1]: 8.42
- area under intracellular growth-inhibition dose-response curve [2]: 168

Compound: CCOc1ccc(OCCC(=O)NNC(=O)c2ccncc2)cc1
- area under cytotoxicity dose-response curve [1]: 1.82
- area under intracellular growth-inhibition dose-response curve [2]: 272

Compound: Cc1ccc(S(=O)(=O)c2ccc([N+](=O)[O-])cn2)cc1
- area under cytotoxicity dose-response curve [1]: 102
- area under intracellular growth-inhibition dose-response curve [2]: < 0

Compound: COc1ccc(/C=N/NC(N)=S)cc1
- area under cytotoxicity dose-response curve [1]: 4.45
- area under intracellular growth-inhibition dose-response curve [2]: 258

Compound: CCOc1ccc2ccccc2c1/C=N/NC(=O)c1ccncc1
- area under cytotoxicity dose-response curve [1]: < 0
- area under intracellular growth-inhibition dose-response curve [2]: 270

Compound: COC(=O)c1ccc(COc2ccc(/C=N/NC(N)=S)cc2)o1
- area under cytotoxicity dose-response curve [1]: 50.5
- area under intracellular growth-inhibition dose-response curve [2]: 277

Compound: COc1ccc(/C=N/Nc2cc(C)nc3ccc(OC)cc23)c(OC)c1
- area under cytotoxicity dose-response curve [1]: 42.9
- area under intracellular growth-inhibition dose-response curve [2]: 151

Compound: O=C(COC(=O)Cc1cccs1)NCC(=O)Nc1ccc(F)cc1
- area under cytotoxicity dose-response curve [1]: 45.1
- area under intracellular growth-inhibition dose-response curve [2]: < 0

Compound: NC(=S)N/N=C/c1ccc(-c2ccc(Cl)c(Cl)c2)o1
- area under cytotoxicity dose-response curve [1]: 107
- area under intracellular growth-inhibition dose-response curve [2]: 219

Compound: O=C(N/N=C/c1ccccc1C(=O)O)c1ccncc1
- area under cytotoxicity dose-response curve [1]: 37.2
- area under intracellular growth-inhibition dose-response curve [2]: 266

Compound: O=C(NCc1ccc(F)cc1)c1ccc(Br)o1
- area under cytotoxicity dose-response curve [1]: 42.3
- area under intracellular growth-inhibition dose-response curve [2]: 228

Compound: CCCCCNC(=O)CCc1ccccc1
- area under cytotoxicity dose-response curve [1]: < 0
- area under intracellular growth-inhibition dose-response curve [2]: 130

Compound: CCCCC(=O)NCc1ccc(Cl)cc1
- area under cytotoxicity dose-response curve [1]: 27.4
- area under intracellular growth-inhibition dose-response curve [2]: 197

Compound: CCCCCOc1ccc(C(=O)CCC(=O)NNC(=O)c2ccncc2)cc1
- area under cytotoxicity dose-response curve [1]: 75.4
- area under intracellular growth-inhibition dose-response curve [2]: 224

Compound: NC(=S)N/N=C/c1ccc(/C=N/NC(N)=S)cc1
- area under cytotoxicity dose-response curve [1]: 20.6
- area under intracellular growth-inhibition dose-response curve [2]: 258
